Assay results published in ChEMBL document CHEMBL5712891, “Inhibition of BET bromodomain-dependent XIAP and FLIP expression sensitizes KRAS-mutated NSCLC to pro-apoptotic agents” (Cell Death Dis, 2016).
Activity calls are given as the source filed them. The calls are words filed in the database; no cut-off is given here.

Legend:
DV-90 [1] = experiment: Induction of cell cycle arrest in human DV-90 cells assessed as accumulation of cells at G0/G1 phase at 1 uM for 24 hrs by Click-iT EdU Alexa Fluor 647 flow cytometric assay kit analysis (reference value: 45%); type: functional
NCI-H1373 [2] = experiment: Induction of cell cycle arrest in human NCI-H1373 cells assessed as accumulation of cells at G2/M phase at 1 uM for 24 hrs by Click-iT EdU Alexa Fluor 647 flow cytometric assay kit analysis (reference value: 13%); type: functional
DV-90 [3] = experiment: Induction of apoptosis in human DV-90 cells assessed as necrotic cells at 0.5 uM for 24 hrs by annexin V-PI staining based flow cytometric analysis (reference value: 5.4%); type: functional
NCI-H460 [4] = experiment: Induction of apoptosis in human NCI-H460 cells assessed as early apoptotic cells at 2.5 uM for 24 hrs by annexin V-PI staining based flow cytometric analysis (reference value: 0.2%); type: functional
NCI-H1373 [5] = experiment: Antitumor activity against human NCI-H1373 cells xenografted in SCID mouse assessed as tumor weight ratio to control at 50 mg/kg, ip measured on after 15 days relative to control; type: functional; conditions: time 15 day
[6] = Toxicity in SCID mouse xenografted with human NCI-H1373 cells assessed as body weight loss at 50 mg/kg, ip measured on after 15 days relative to control; type: organism-based; conditions: in vivo, 360 h, time 15 day
NCI-H1792 = experiment: Downregulation of XIAP mRNA expression level in human NCI-H1792 cells at 0.1 to 1 uM for 24 hrs by qRT-PCR analysis; type: functional, cell-based; conditions: dose 0.1-1 µM
SK-LU-1 [7] = experiment: Downregulation of XIAP mRNA expression level in human SK-LU-1 cells at 0.1 to 1 uM for 24 hrs by qRT-PCR analysis; type: functional, cell-based; conditions: dose 0.1-1 µM
DV-90 [8] = experiment: Downregulation of FLIP mRNA expression level in human DV-90 cells at 0.1 to 1 uM for 24 hrs by qRT-PCR analysis; type: functional, cell-based; conditions: dose 0.1-1 µM
NCI-H1373 [9] = experiment: Downregulation of FLIP mRNA expression level in human NCI-H1373 cells at 0.1 to 1 uM for 24 hrs by qRT-PCR analysis; type: functional, cell-based; conditions: dose 0.1-1 µM
LCLC-97TM1 = experiment: Downregulation of XIAP protein expression level in human LCLC-97TM1 cells at 1 uM for 24 hrs by […] analysis; type: functional, cell-based
SK-LU-1 [10] = experiment: Downregulation of c-MYC protein expression level in human SK-LU-1 cells at 1 uM for 24 hrs by […] analysis; type: functional, cell-based
NCI-H1373 [11] = experiment: Induction of TRAIL dependent apoptosis in human NCI-H1373 cells by annexin V-PI staining based flow cytometric analysis; type: functional, cell-based
NCI-H1373 [12] = experiment: Induction of TRAIL dependent apoptosis in human NCI-H1373 cells assessed as viable cells at 1 uM by annexin V-PI staining based flow cytometric analysis (reference value: 87.6%); type: functional; conditions: read-out: Activity
DV-90 [13] = experiment: Induction of cell cycle arrest in human DV-90 cells assessed as accumulation of cells at G2/M phase at 0.1 uM for 24 hrs by Click-iT EdU Alexa Fluor 647 flow cytometric assay kit analysis (reference value: 21%); type: functional
DV-90 [14] = experiment: Induction of cell cycle arrest in human DV-90 cells assessed as accumulation of cells at G2/M phase at 1 uM for 24 hrs by Click-iT EdU Alexa Fluor 647 flow cytometric assay kit analysis (reference value: 21%); type: functional
A549 [15] = experiment: Induction of apoptosis in human A549 cells assessed as viable cells at 0.5 uM for 24 hrs by annexin V-PI staining based flow cytometric analysis (reference value: 97.7%); type: functional; conditions: read-out: Activity
A549 [16] = experiment: Induction of apoptosis in human A549 cells assessed as necrotic cells at 0.5 uM for 24 hrs by annexin V-PI staining based flow cytometric analysis (reference value: 0.9%); type: functional
NCI-H1373 [17] = experiment: Induction of apoptosis in human NCI-H1373 cells assessed as late apoptotic cells at 0.5 uM for 24 hrs by annexin V-PI staining based flow cytometric analysis (reference value: 22.3%); type: functional
NCI-H1373 [18] = experiment: Induction of apoptosis in human NCI-H1373 cells assessed as necrotic cells at 2.5 uM for 24 hrs by annexin V-PI staining based flow cytometric analysis (reference value: 4.4%); type: functional
NCI-H460 [19] = experiment: Induction of apoptosis in human NCI-H460 cells assessed as early apoptotic cells at 2.5 uM for 24 hrs by annexin V-PI staining based flow cytometric analysis (reference value: 0.3%); type: functional
DV-90 [20] = experiment: Induction of apoptosis in human DV-90 cells assessed as early apoptotic cells at 2.5 uM for 48 hrs by annexin V-PI staining based flow cytometric analysis (reference value: 1.0%)

## CCNC(=O)C[C@@H]1N=C(c2ccc(Cl)cc2)c2cc(OC)ccc2-n2c(C)nnc21 [MOLIBRESIB]
DV-90 [1]
  Activity: 50%

## Cc1sc2c(c1C)C(c1ccc(Cl)cc1)=N[C@@H](CC(=O)OC(C)(C)C)c1nnc(C)n1-2
NCI-H1373 [2]
  Activity: 21%
DV-90 [3]
  Activity: 25.4%
NCI-H460 [4]
  Activity: 0.4%
NCI-H1373 [5]
  T/C: 32%
[6]
  Activity: 5%
NCI-H1792
  Activity: Active
SK-LU-1 [7]
  Activity: Active
DV-90 [8]
  Activity: Active
NCI-H1373 [9]
  Activity: Active
LCLC-97TM1
  Activity: Active
SK-LU-1 [10]
  Activity: Active
NCI-H1373 [11]
  Activity: Active
NCI-H1373 [12]
  viability at 1 µM: 64.4%

## Cc1sc2c(c1C)C(c1ccc(Cl)cc1)=N[C@@H](CC(=O)Nc1ccc(O)cc1)c1nnc(C)n1-2 [BIRABRESIB]
DV-90 [13]
  Activity: 29%
DV-90 [14]
  Activity: 22%
A549 [15]
  viability at 0.5 µM: 98.1%
A549 [16]
  Activity: 0.7%
NCI-H1373 [17]
  Activity: 20.5%
NCI-H1373 [18]
  Activity: 21.4%
NCI-H460 [19]
  Activity: 0.6%
DV-90 [20]
  Activity: 2.6%
